Data from US12214092B2, “Systems and methods for treating biological fluids” (Cerus Corporation, priority 2017, dated 2025).

Key:
[1] = system: feline calicivirus (FCV); conditions: previously reported (Irsch et al. 2011), 150 μM S-59 with broad spectrum UVA; cited from earlier work
[2] = system: feline calicivirus (FCV); experiment: Photochemical inactivation of FCV in platelets (35% plasma/65% PAS) with amotosalen and 340 nm UVA, plaque assay; type: cell-based
[3] = system: platelets; experiment: Platelet quality, platelets in 35% plasma/65% PAS III, amotosalen 30-110 μM, 340 nm device ~7.2 J/cm^2; type: cell-based

SMILES: Cc1oc2c(C)c3oc(=O)cc(C)c3cc2c1COCCN [S-59, 3-(2-aminoethoxymethyl)-2,5,9-trimethylfuro[3,2-g]chromen-7-one]
- reduction in titer of caliciviruses (FCV) [1]: 1.7-2.4 log 10
- Log inactivation ([2]; 15 μM, 4 hr incubation, 340 nm ~3 J/cm^2): 2.7 log PFU/mL
- Log inactivation ([2]; 15 μM, 8 hr incubation, 340 nm ~3 J/cm^2): 4.2 log PFU/mL
- Log inactivation ([2]; 15 μM, 8 hr, 340 nm ~3 J/cm^2 Top Only): 4.1 log PFU/mL
- Log inactivation ([2]; 15 μM, 8 hr, 340 nm ~3 J/cm^2 Top/Bottom): 3.9 log PFU/mL
- Log inactivation ([2]; 15 μM, 24 hr incubation, 340 nm ~3 J/cm^2): >5.6 log PFU/mL
- Log inactivation ([2]; 15 μM, 24 hr, 340 nm ~3 J/cm^2 Top Only): >6.3 log PFU/mL
- Log inactivation ([2]; 15 μM, 24 hr, 340 nm ~3 J/cm^2 Top/Bottom): >6.3 log PFU/mL
- Log inactivation ([2]; 30 μM, 4 hr incubation, 340 nm ~3 J/cm^2): 4.0 log PFU/mL
- Log inactivation ([2]; 30 μM, 8 hr incubation, 340 nm ~3 J/cm^2): >5.6 log PFU/mL
- Log inactivation ([2]; 30 μM, 8 hr, 340 nm ~3 J/cm^2 Top Only): >6.3 log PFU/mL
- Log inactivation ([2]; 30 μM, 8 hr, 340 nm ~3 J/cm^2 Top/Bottom): 6.3 log PFU/mL
- Log inactivation ([2]; 30 μM, 24 hr incubation, 340 nm ~3 J/cm^2): >5.6 log PFU/mL
- Log inactivation ([2]; 30 μM, 24 hr, 340 nm ~3 J/cm^2 Top Only): >6.3 log PFU/mL
- Log inactivation ([2]; 30 μM, 24 hr, 340 nm ~3 J/cm^2 Top/Bottom): >6.3 log PFU/mL
- Log inactivation ([2]; 90 μM, 4 hr incubation, 340 nm ~3 J/cm^2): >5.6 log PFU/mL
- Log inactivation ([2]; 90 μM, 8 hr incubation, 340 nm ~3 J/cm^2): >5.6 log PFU/mL
- Log inactivation ([2]; 90 μM, 24 hr incubation, 340 nm ~3 J/cm^2): >5.6 log PFU/mL
- Log inactivation ([2]; 150 μM, 0 hr incubation, 340 nm, more than twice ~3 J/cm^2): 2.5 log PFU/mL
- Log inactivation ([2]; 150 μM, 0 hr, 340 nm Top Only (1-sided)): 4.6 log PFU/mL
- Log inactivation ([2]; 150 μM, 0 hr, 340 nm Top/Bottom (2-sided)): 3.5 log PFU/mL
- Glucose ([3]; 30 μM, D4): 3.27 mmol/L
- LDH ([3]; 30 μM, D4): 7.44 LDH IU/10^11 platelets
- Lactate ([3]; 30 μM, D4): 7.1 mmol/L
- Platelet counts ([3]; 30 μM, D4): 1385 x10^3 cells/μL
- Platelet lysis ([3]; 30 μM, D4): 2.86%
- pCO2 at 37° C. ([3]; 30 μM, D4): 26.7 mm Hg
- pH at 22° C. ([3]; 30 μM, D4): 7.11
- pH at 37° C. ([3]; 30 μM, D4): 6.88
- pO2 at 37° C. ([3]; 30 μM, D4): 28.9 mm Hg
- Glucose ([3]; 30 μM, D7): 0.16 mmol/L
- LDH ([3]; 30 μM, D7): 8.26 LDH IU/10^11 platelets
- Lactate ([3]; 30 μM, D7): 15.38 mmol/L
- Platelet counts ([3]; 30 μM, D7): 1392 x10^3 cells/μL
- Platelet lysis ([3]; 30 μM, D7): 3.17%
- pCO2 at 37° C. ([3]; 30 μM, D7): 23.6 mm Hg
- pH at 22° C. ([3]; 30 μM, D7): 7.08
- pH at 37° C. ([3]; 30 μM, D7): 6.86
- pO2 at 37° C. ([3]; 30 μM, D7): 57.3 mm Hg
- Glucose ([3]; 30 μM, Post-UV): 5.45 mmol/L
- LDH ([3]; 30 μM, Post-UV): 7.80 LDH IU/10^11 platelets
- Lactate ([3]; 30 μM, Post-UV): 8.21 mmol/L
- Platelet counts ([3]; 30 μM, Post-UV): 1308 x10^3 cells/μL
- Platelet lysis ([3]; 30 μM, Post-UV): 2.85%
- pCO2 at 37° C. ([3]; 30 μM, Post-UV): 34.9 mm Hg
- pH at 22° C. ([3]; 30 μM, Post-UV): 7.07
- pH at 37° C. ([3]; 30 μM, Post-UV): 6.84
- pO2 at 37° C. ([3]; 30 μM, Post-UV): 11.6 mm Hg
- Glucose ([3]; 30 μM, Pre-UV): 5.2 mmol/L
- LDH ([3]; 30 μM, Pre-UV): 7.13 LDH IU/10^11 platelets
- Lactate ([3]; 30 μM, Pre-UV): 8.6 mmol/L
- Platelet counts ([3]; 30 μM, Pre-UV): 1346 x10^3 cells/μL
- Platelet lysis ([3]; 30 μM, Pre-UV): 2.46%
- pCO2 at 37° C. ([3]; 30 μM, Pre-UV): 35.0 mm Hg
- pH at 22° C. ([3]; 30 μM, Pre-UV): 7.07
- pH at 37° C. ([3]; 30 μM, Pre-UV): 6.85
- pO2 at 37° C. ([3]; 30 μM, Pre-UV): 4.8 mm Hg
- Glucose ([3]; 60 μM, D4): 2.92 mmol/L
- LDH ([3]; 60 μM, D4): 8.12 LDH IU/10^11 platelets
- Lactate ([3]; 60 μM, D4): 10.11 mmol/L
- Platelet counts ([3]; 60 μM, D4): 1379 x10^3 cells/μL
- Platelet lysis ([3]; 60 μM, D4): 3.10%
- pCO2 at 37° C. ([3]; 60 μM, D4): 26.6 mm Hg
- pH at 22° C. ([3]; 60 μM, D4): 7.11
- pH at 37° C. ([3]; 60 μM, D4): 6.88
- pO2 at 37° C. ([3]; 60 μM, D4): 28.8 mm Hg
- Glucose ([3]; 60 μM, D7): 0 mmol/L
- LDH ([3]; 60 μM, D7): 8.48 LDH IU/10^11 platelets
- Lactate ([3]; 60 μM, D7): 15.16 mmol/L
- Platelet counts ([3]; 60 μM, D7): 1403 x10^3 cells/μL
- Platelet lysis ([3]; 60 μM, D7): 3.37%
- pCO2 at 37° C. ([3]; 60 μM, D7): 23.1 mm Hg
- pH at 22° C. ([3]; 60 μM, D7): 7.08
- pH at 37° C. ([3]; 60 μM, D7): 6.86
- pO2 at 37° C. ([3]; 60 μM, D7): 61.0 mm Hg
- Glucose ([3]; 60 μM, Post-UV): 5.04 mmol/L
- LDH ([3]; 60 μM, Post-UV): 7.53 LDH IU/10^11 platelets
- Lactate ([3]; 60 μM, Post-UV): 6.93 mmol/L
- Platelet counts ([3]; 60 μM, Post-UV): 1249 x10^3 cells/μL
- Platelet lysis ([3]; 60 μM, Post-UV): 2.65%
- pCO2 at 37° C. ([3]; 60 μM, Post-UV): 35.1 mm Hg
- pH at 22° C. ([3]; 60 μM, Post-UV): 7.06
- pH at 37° C. ([3]; 60 μM, Post-UV): 6.83
- pO2 at 37° C. ([3]; 60 μM, Post-UV): 8.0 mm Hg
- Glucose ([3]; 60 μM, Pre-UV): 5.16 mmol/L
- LDH ([3]; 60 μM, Pre-UV): 7.66 LDH IU/10^11 platelets
- Lactate ([3]; 60 μM, Pre-UV): 6.72 mmol/L
- Platelet counts ([3]; 60 μM, Pre-UV): 1344 x10^3 cells/μL
- Platelet lysis ([3]; 60 μM, Pre-UV): 2.68%
- pCO2 at 37° C. ([3]; 60 μM, Pre-UV): 33.7 mm Hg
- pH at 22° C. ([3]; 60 μM, Pre-UV): 7.08
- pH at 37° C. ([3]; 60 μM, Pre-UV): 6.85
- pO2 at 37° C. ([3]; 60 μM, Pre-UV): 29.4 mm Hg
- Glucose ([3]; 90 μM, D4): 2.97 mmol/L
- Lactate ([3]; 90 μM, D4): 9.83 mmol/L
- Platelet counts ([3]; 90 μM, D4): 1373 x10^3 cells/μL
- Platelet lysis ([3]; 90 μM, D4): 3.23%
- pCO2 at 37° C. ([3]; 90 μM, D4): 26.9 mm Hg
- pH at 22° C. ([3]; 90 μM, D4): 7.10
- pH at 37° C. ([3]; 90 μM, D4): 6.87
- pO2 at 37° C. ([3]; 90 μM, D4): 25.7 mm Hg
- Glucose ([3]; 90 μM, D7): 0 mmol/L
- LDH ([3]; 90 μM, D7): 8.67 LDH IU/10^11 platelets
- Lactate ([3]; 90 μM, D7): 14.62 mmol/L
- Platelet counts ([3]; 90 μM, D7): 1384 x10^3 cells/μL
- Platelet lysis ([3]; 90 μM, D7): 3.53%
- pCO2 at 37° C. ([3]; 90 μM, D7): 22.6 mm Hg
- pH at 22° C. ([3]; 90 μM, D7): 7.10
- pH at 37° C. ([3]; 90 μM, D7): 6.87
- pO2 at 37° C. ([3]; 90 μM, D7): 61.8 mm Hg
- Glucose ([3]; 90 μM, Post-UV): 4.95 mmol/L
- Lactate ([3]; 90 μM, Post-UV): 7.11 mmol/L
- Platelet counts ([3]; 90 μM, Post-UV): 1313 x10^3 cells/μL
- Platelet lysis ([3]; 90 μM, Post-UV): 2.64%
- pCO2 at 37° C. ([3]; 90 μM, Post-UV): 33.7 mm Hg
- pH at 22° C. ([3]; 90 μM, Post-UV): 7.06
- pH at 37° C. ([3]; 90 μM, Post-UV): 6.83
- pO2 at 37° C. ([3]; 90 μM, Post-UV): 29.3 mm Hg
- Glucose ([3]; 90 μM, Pre-UV): 4.9 mmol/L
- Lactate ([3]; 90 μM, Pre-UV): 6.95 mmol/L
- Platelet counts ([3]; 90 μM, Pre-UV): 1344 x10^3 cells/μL
- Platelet lysis ([3]; 90 μM, Pre-UV): 2.76%
- pCO2 at 37° C. ([3]; 90 μM, Pre-UV): 34.9 mm Hg
- pH at 22° C. ([3]; 90 μM, Pre-UV): 7.06
- pH at 37° C. ([3]; 90 μM, Pre-UV): 6.84
- pO2 at 37° C. ([3]; 90 μM, Pre-UV): 9.0 mm Hg
- Platelet counts ([3]; 110 μM, D4): 0 x10^3 cells/μL
- Platelet counts ([3]; 110 μM, D7): 0 x10^3 cells/μL
- Glucose ([3]; 110 μM, Post-UV): 4.88 mmol/L
- LDH ([3]; 110 μM, Post-UV): 6.97 LDH IU/10^11 platelets
- Lactate ([3]; 110 μM, Post-UV): 7.18 mmol/L
- Platelet counts ([3]; 110 μM, Post-UV): 1335 x10^3 cells/μL
- Platelet lysis ([3]; 110 μM, Post-UV): 2.72%
- pCO2 at 37° C. ([3]; 110 μM, Post-UV): 34.2 mm Hg
- pH at 22° C. ([3]; 110 μM, Post-UV): 7.05
- pH at 37° C. ([3]; 110 μM, Post-UV): 6.83
- pO2 at 37° C. ([3]; 110 μM, Post-UV): 16.1 mm Hg
- Glucose ([3]; 110 μM, Pre-UV): 4.95 mmol/L
- LDH ([3]; 110 μM, Pre-UV): 7.42 LDH IU/10^11 platelets
- Lactate ([3]; 110 μM, Pre-UV): 6.85 mmol/L
- Platelet counts ([3]; 110 μM, Pre-UV): 1308 x10^3 cells/μL
- Platelet lysis ([3]; 110 μM, Pre-UV): 2.65%
- pCO2 at 37° C. ([3]; 110 μM, Pre-UV): 33.7 mm Hg
- pH at 22° C. ([3]; 110 μM, Pre-UV): 7.07
- pH at 37° C. ([3]; 110 μM, Pre-UV): 6.84
- pO2 at 37° C. ([3]; 110 μM, Pre-UV): 6.3 mm Hg
